The values below are quoted from earlier work in US20050266409A1, “Compositions and methods for diagnosing, preventing, and treating cancers” (priority 2003, published 2005).

Data set [1] deals with tumor cells. The conditions noted are these: read-out: 50% growth inhibition of tumor cells.
Data set [2] deals with lymphoid, myeloid, colon, and prostate cancer cells. The conditions noted are these: prostate cancer xenografts in nude mice.

On to `CN1CC[C@H](c2c(O)cc(O)c3c(=O)cc(-c4ccccc4Cl)oc23)[C@H](O)C1` [Flavopiridol], for which the IC50 in data set [1] was 60 nM. Further, the “inhibition of cancer cells grown in vivo as tumor xenografts” value in data set [2] is recorded as “inhibits”.
